Assay results as given in patent US5691135A, “Immunoglobulin superantigen binding to gp 120 from HIV” (The Regents of the University of California, priority 1994, dated 1997).
Values joined by “and” are separate entries in the source; they are usually repeats but may differ in a detail not shown here. Equal values may be shown once. “Also recorded” adds a separate entry of the source.

Tests used:
[1] = system: monoclonal IgM HEA binding to gp120; set-up: species or system human; details: for RESIDUAL BINDING TO gp120 (% OF CONTROL), 1.0 μM PEPTIDE / RESIDUAL BINDING TO gp120 (% OF CONTROL), 10.0 μM PEPTIDE: gp120 elisa
[2] = system: polyclonal serum IgM binding to gp120 from HIV-1SF2; set-up: species or system human; details: for RESIDUAL BINDING TO gp120 (% OF CONTROL), 1.0 μM PEPTIDE / RESIDUAL BINDING TO gp120 (% OF CONTROL), 10.0 μM PEPTIDE: gp120 elisa
[3] = system: monoclonal IgM VNG binding to gp120; set-up: species or system human; details: for RESIDUAL BINDING TO gp120 (% OF CONTROL), 1.0 μM PEPTIDE / RESIDUAL BINDING TO gp120 (% OF CONTROL), 10.0 μM PEPTIDE: gp120 elisa
[4] = system: monoclonal IgM RSJ binding to gp120; set-up: species or system human; details: gp120 elisa
[5] = system: monoclonal IgM VIN binding to gp120; set-up: species or system human; details: gp120 elisa
[6] = system: panel of Ig-SAg binding antibodies (polyclonal IgM plus four monoclonal IgM) binding to gp120; set-up: species or system human
CD19+ tonsil B-cells = format: cell-based, human
[7] = system: tonsil T-cells (CD19-, CD3+); format: cell-based, human

Substance | RESIDUAL BINDING TO gp120 (% OF CONTROL), 1.0 μM PEPTIDE [3] [% OF CONTROL] | RESIDUAL BINDING TO gp120 (% OF CONTROL), 10.0 μM PEPTIDE [3] [% OF CONTROL] | RESIDUAL BINDING TO gp120 (% OF CONTROL), 1.0 μM PEPTIDE [4] [% OF CONTROL] | RESIDUAL BINDING TO gp120 (% OF CONTROL), 1.0 μM PEPTIDE [5] [% OF CONTROL] | RESIDUAL BINDING TO gp120 (% OF CONTROL), 10.0 μM PEPTIDE [5] [% OF CONTROL] | RESIDUAL BINDING TO gp120 (% OF CONTROL), 10.0 μM PEPTIDE [4] [% OF CONTROL] | RESIDUAL BINDING TO gp120 (% OF CONTROL), 1.0 μM PEPTIDE [1] [% OF CONTROL] | RESIDUAL BINDING TO gp120 (% OF CONTROL), 10.0 μM PEPTIDE [1] [% OF CONTROL] | RESIDUAL BINDING TO gp120 (% OF CONTROL), 1.0 μM PEPTIDE [2] [% OF CONTROL] | RESIDUAL BINDING TO gp120 (% OF CONTROL), 10.0 μM PEPTIDE [2] [% OF CONTROL] | other results
CRIKQIIMWQKVGKAMYAPPISG [Peptide 1589, gp160 peptide 418-441, HIV-1 IIIB] | – | – | – | – | – | – | – | – | – | – | inhibition of HEA binding to gp120 [1]: inhibited the binding of HEA to gp120
CTRPNYNKRKRIHIGPGRAF [Peptide 1985, gp160 peptide 301-320, HIV-1 MN] | 27.4 ± 0.5 | 24.2 ± 0.1 | – | – | – | – | – | – | – | – | inhibition of polyclonal serum IgM binding to gp120 [2]: does not inhibit; binding of VNG to peptide [3]: bound
DTEVHNVWATQACVPTDPNP [Peptide 1925, gp160 peptide 61-81, HIV-1 MN] | – | – | – | – | – | – | – | – | – | – | inhibition of gp120 binding to VH3 IgM (VH3 IgM binding to gp120): neither actin nor the 1925 peptide inhibited
EGTIKGGEMKNCSFNITTSI [Peptide 1934, gp160 peptide 151-170, HIV-1 MN] | – | – | 13.9 ± 0.3 | – | – | – | – | – | – | – | –
GKAMYAPPIEGQIRCSSNIT [Peptide 2008, gp160 peptide 431-450, HIV-1 MN] | – | – | – | 108 ± 4.3 | 15.7 ± 1.7 | – | – | – | – | – | –
KGSCKNVSTVQCTHGIRPVV [Peptide 1960, gp160 peptide 241-260, HIV-1 MN] | 58.1 ± 0 | 32.3 ± 7.1 | 10.2 ± 2.4 | 6.2 ± 1.3 | 5.8 ± 1.3 | 4.2 ± 5.0 | 11.3 ± 2.5 | 6.2 ± 3.0 | 19.2 ± 1.0 | 11.7 ± 2.3 | peptide binding across all Ig tested [6]: bound to all Ig tested
KQIINMWQEVGKAMYAPPIE [Peptide 2007, gp160 peptide 421-440, HIV-1 MN] | – | – | 24.1 ± 0.1 | 69.8 ± 4.2 | 21.2 ± 1.2 | 3.1 ± 0.7 | 56.2 ± 4.7 | 10.3 ± 0.5 | 59.1 ± 0.8 | 19.8 ± 5.4 | –
KWNDTLRQIVSKLKEQFKNK [Peptide 1989, gp160 peptide 341-360, HIV-1 MN] | – | – | – | 96.6 ± 6.1 | 13.4 ± 1.8 | – | 98.3 ± 0.1 | 26.2 ± 0.8 | 88.5 ± 3.6 | 24.6 ± 6.6 | –
LKCNDKKFSGKGSCKNVSTV [Peptide 1959, gp160 peptide 231-250, HIV-1 MN] | 48.7 ± 0.9 | 13.7 ± 3.6 | 40.5 ± 8.2 | 12.6 ± 1.0 | 8.0 ± 0.2 | 17.2 ± 1.7 | 28.3 ± 3.7 | 8.4 ± 5.3 | 37.0 ± 4.4 | 16.8 ± 8.4 | peptide binding across all Ig tested [6]: bound to all Ig tested
MRVKGIRRNYQHWWGWGTM [Peptide 1919, gp160 peptide, amino acids 1-20, HIV-1 MN] | 46.4 ± 20.2 | 3.3 ± 1.7 | 11.1 ± 1.5 | 28.1 ± 5.0 | 14.8 ± 2.0 | 1.3 ± 0.1 | 56.1 ± 3.6 | 15.1 ± 2.1 | 17.6 ± 0.2 | – | inhibition of gp120 binding to VH3 IgM (VH3 IgM binding to gp120): inhibited gp120 binding to VH3 IgM; inhibition of IgM binding to gp120 by shared peptides [6]: abolished the binding of IgM to gp120; peptide binding across all Ig tested [6]: bound to all Ig tested; also recorded: bound to all of the monoclonal antibodies as well as to polyclonal serum IgM
RQAHCNISRAKWNDTLRQIV [Peptide 1988, gp160 peptide 331-350, HIV-1 MN] | – | – | 20.3 ± 1.5 | 12.4 ± 0.6 | 12.2 ± 7.8 | 13.5 ± 0.4 | 92.8 ± 0.4 | 40.8 ± 6.1 | 39.9 ± 3.6 | 23.7 ± 9.7 | –
TKAKRRVVQREKRAAIGALP [Peptide 2015, gp160 peptide 501-520, HIV-1 MN] | 83.0 ± 6.3 | 37.7 ± 2.0 | – | 23.7 ± 3.4 | 6.5 ± 2.0 | – | – | – | 44.5 ± 5.4 | 29.3 ± 5.1 | –
YTTKNIIGTIRQAHCNISRA [Peptide 1987, gp160 peptide 321-340, HIV-1 MN] | – | – | 56.8 ± 0.3 | – | – | 42.2 ± 3.4 | – | – | – | – | –
actin | – | – | – | – | – | – | – | – | – | – | inhibition of gp120 binding to VH3 IgM (VH3 IgM binding to gp120): neither actin nor the 1925 peptide inhibited
gp120: recombinant gp120 from HIV-1SF2 expressed in CHO cells | – | – | – | – | – | – | – | – | – | – | fraction of B-cell population (CD19+) that bound gp120 (CD19+ tonsil B-cells): 4% and 3-6%; fraction of T-cell population (CD19-) that bound gp120 [7]: 68% and 65%
thyroglobulin | – | – | – | – | – | – | – | – | – | – | inhibition of gp120 binding to VH3 IgM (VH3 IgM binding to gp120): inhibited gp120 binding to VH3 IgM
